Laboratory results from US20220017877A1, “BILIRUBIN OXIDASE ACTIVITY IMPROVING METHOD, AND BILIRUBIN OXIDASE PRODUCT” (OZEKI CORPORATION, priority 2018, published 2022).
Where two headings read alike, the source gives them in different places.

Target: T1, recombinant BOD (bilirubin oxidase) derived from Myrothecium verrucaria MT-1 (Albifimbria verrucaria, UniProt Q12737)
T1 construct: made in house; host or cells: Aspergillus sp
T1 sequence (Q12737 39-572): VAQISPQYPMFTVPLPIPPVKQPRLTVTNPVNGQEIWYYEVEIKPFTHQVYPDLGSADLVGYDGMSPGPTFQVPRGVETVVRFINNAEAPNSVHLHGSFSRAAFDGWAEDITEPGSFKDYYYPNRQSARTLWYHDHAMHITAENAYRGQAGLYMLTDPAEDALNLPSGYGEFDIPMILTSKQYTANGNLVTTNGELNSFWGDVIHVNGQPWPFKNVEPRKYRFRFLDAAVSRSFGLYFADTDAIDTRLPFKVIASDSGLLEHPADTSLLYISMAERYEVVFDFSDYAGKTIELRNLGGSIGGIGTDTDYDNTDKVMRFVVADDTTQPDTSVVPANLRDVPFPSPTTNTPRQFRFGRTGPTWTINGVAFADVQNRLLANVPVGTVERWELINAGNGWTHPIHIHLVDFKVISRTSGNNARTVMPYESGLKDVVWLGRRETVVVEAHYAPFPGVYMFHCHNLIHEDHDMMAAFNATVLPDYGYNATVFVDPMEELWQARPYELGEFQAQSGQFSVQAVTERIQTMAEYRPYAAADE
Test: BOD activity after leaving the BOD solution with an activity improving agent at 5 to 50° C. in a deoxygenated atmosphere (Test Example 2)
Assay type: biochemical
Settings: for BOD activity increase at 5° C. compared with not lower than 10° C.: BOD containers left at 5° C.
Excerpt: In Test Example 1, a BOD gene derived from a Myrothecium verrucaria MT-1 (GenBank accession number: D12579.1) was introduced into an Aspergillus sp., and then a recombinant BOD (hereinafter, also referred to simply as “BOD”) expressed in the Aspergillus sp. was purified by using a well-known technique and then used as the BOD. The BOD gene derived from the Myrothecium verrucaria MT-1 was codon-optimized in accordance with a gene sequence of the Aspergillus sp., and then introduced into the Aspergillus sp. Further, the BOD thus purified was dissolved in a 50 mM glycine-KOH (pH 8.5) buffer so that the concentration of the BOD became 1.0 mg/mL. Then, a resultant solution was used as a BOD enzyme solution.
The enzymatic activity of the BOD was measured as follows. To 1780 μL of a 50 mM potassium phosphate buffer (pH 6.5), 200 μL of a 20 mM ABTS substrate solution was added, so that a mixed solution (1980 μL) was prepared. This mixed solution was incubated for 1 min at 37° C. Thereafter, 20 μL of a solution containing the BOD (specifically, a BOD solution for evaluation, which will be described later) was added to the mixed solution, and a resultant mixed solution (2 mL) was incubated at 37° C. While the mixed solution was incubated, the absorbance of the mixed solution at a wavelength of 436 nm was measured immediately after that addition of the BOD solution for evaluation (at 0 seconds) and thereafter every 20 seconds. On the basis of (i) the absorbance of the mixed solution at a wavelength of 436 nm immediately after the addition of the BOD solution for evaluation and (ii) the absorbance of the mixed solution at a wavelength of 436 nm after a lapse of 1 minute from the addition of the BOD solution for evaluation, calculation was carried out for obtaining an increase rate per minute of the absorbance of the mixed solution at a wavelength of 436 nm after the addition of the BOD solution for evaluation. The BOD activity (unit) in the BOD solution for evaluation was calculated from the increase rate. In the present specification, the amount of enzyme for oxidizing 1 μmol of ABTS per minute was defined as one unit.
The following describes a specific test method in Test Example 2. A BOD solution containing an activity improving agent was prepared as in Test Example 1. Further, another BOD solution which contained no activity improving agent (to which no activity improving agent was added) was prepared and used as a control. In Test Example 2, L-ascorbic acid or uric acid was used as the activity improving agent. Moreover, the final concentration of L-ascorbic acid in the BOD solution was set to 4 mM, and the final concentration of uric acid in the BOD solution was set to 20 mM. In addition, in Test Example 2, the concentration of the BOD in the BOD enzyme solution was set to 3.0 mg/mL.
Each of the above BOD solutions and a deoxygenating agent (Anaero Pack-Kenki manufactured by Mitsubishi Gas Chemical Company, Inc.) were included in one container (pouch) which was not permeable to oxygen. Then, the container was sealed, so that a BOD container was prepared. The BOD container was left at room temperature (approximately 25° C.) for approximately 2 hours, so that an inner atmosphere of the container became the deoxygenated atmosphere. Thereafter, the BOD container was left in a thermostatic chamber set at 5° C., 10° C., 20° C., 30° C., 40° C., or 50° C. for a certain period of time. Here, (a) the BOD solution without any additive was left for 1 day, 3 days, 7 days, 14 days, or 29 days, (b) the BOD solution containing L-ascorbic acid was left for 1 day, 3 days, 7 days, or 14 days, and (c) the BOD solution containing uric acid was left for 1 day, 3 days, 8 days, 14 days, or 28 days. Three samples (BOD containers) were prepared for each condition. After leaving the BOD containers under the above conditions, the BOD solution was collected from each of the BOD containers and used as a BOD solution for evaluation. […]

O=C1O[C@H]([C@@H](O)CO)C(O)=C1O [L-ascorbic acid]
activity at 4000 µM (4 mM, 5° C., Day 0, read-out: Activity (%) Day 0): 100% | activity at 4000 µM (4 mM, 5° C., Day 1, read-out: Activity (%) Day 1): 92% | activity at 4000 µM (4 mM, 5° C., Day 3, read-out: Activity (%) Day 3): 95% | activity at 4000 µM (4 mM, 5° C., Day 7, read-out: Activity (%) Day 7): 107% | activity at 4000 µM (4 mM, 5° C., Day 14, read-out: Activity (%) Day 14): 55% | activity at 4000 µM (4 mM, 10° C., Day 0, read-out: Activity (%) Day 0): 100% | activity at 4000 µM (4 mM, 10° C., Day 1, read-out: Activity (%) Day 1): 101% | activity at 4000 µM (4 mM, 10° C., Day 3, read-out: Activity (%) Day 3): 120% | activity at 4000 µM (4 mM, 10° C., Day 7, read-out: Activity (%) Day 7): 146% | activity at 4000 µM (4 mM, 10° C., Day 14, read-out: Activity (%) Day 14): 147% | activity at 4000 µM (4 mM, 20° C., Day 0, read-out: Activity (%) Day 0): 100% | activity at 4000 µM (4 mM, 20° C., Day 1, read-out: Activity (%) Day 1): 115% | activity at 4000 µM (4 mM, 20° C., Day 3, read-out: Activity (%) Day 3): 160% | activity at 4000 µM (4 mM, 20° C., Day 7, read-out: Activity (%) Day 7): 195% | activity at 4000 µM (4 mM, 20° C., Day 14, read-out: Activity (%) Day 14): 188% | activity at 4000 µM (4 mM, 30° C., Day 0, read-out: Activity (%) Day 0): 100% | activity at 4000 µM (4 mM, 30° C., Day 1, read-out: Activity (%) Day 1): 164% | activity at 4000 µM (4 mM, 30° C., Day 3, read-out: Activity (%) Day 3): 205% | activity at 4000 µM (4 mM, 30° C., Day 7, read-out: Activity (%) Day 7): 204% | activity at 4000 µM (4 mM, 30° C., Day 14, read-out: Activity (%) Day 14): 229% | activity at 4000 µM (4 mM, 40° C., Day 0, read-out: Activity (%) Day 0): 100% | activity at 4000 µM (4 mM, 40° C., Day 1, read-out: Activity (%) Day 1): 212% | activity at 4000 µM (4 mM, 40° C., Day 3, read-out: Activity (%) Day 3): 216% | activity at 4000 µM (4 mM, 40° C., Day 7, read-out: Activity (%) Day 7): 215% | activity at 4000 µM (4 mM, 40° C., Day 14, read-out: Activity (%) Day 14): 237% | activity at 4000 µM (4 mM, 50° C., Day 0, read-out: Activity (%) Day 0): 100% | activity at 4000 µM (4 mM, 50° C., Day 1, read-out: Activity (%) Day 1): 220% | activity at 4000 µM (4 mM, 50° C., Day 3, read-out: Activity (%) Day 3): 211% | activity at 4000 µM (4 mM, 50° C., Day 7, read-out: Activity (%) Day 7): 212% | activity at 4000 µM (4 mM, 50° C., Day 14, read-out: Activity (%) Day 14): 238% | increase of BOD activity as compared with that prior to leaving (4 mM, one day at not lower than 40° C.): ≥ 2 times | increase of BOD activity as compared with that prior to leaving (4 mM, seven days at 20° C.): ≥ 2 times | increase of BOD activity as compared with that prior to leaving (4 mM, three days at 30° C.): ≥ 2 times | BOD activity increase at 5° C. compared with not lower than 10° C.: not found to be increased to an extend that was achieved

O=c1[nH]c(=O)c2[nH]c(=O)[nH]c2[nH]1 [Uric acid, uric acid]
activity at 20000 µM (20 mM, 5° C., Day 0, read-out: Activity (%) Day 0): 100% | activity at 20000 µM (20 mM, 5° C., Day 1, read-out: Activity (%) Day 1): 116% | activity at 20000 µM (20 mM, 5° C., Day 3, read-out: Activity (%) Day 3): 113% | activity at 20000 µM (20 mM, 5° C., Day 8, read-out: Activity (%) Day 8): 140% | activity at 20000 µM (20 mM, 5° C., Day 14, read-out: Activity (%) Day 14): 137% | activity at 20000 µM (20 mM, 5° C., Day 28, read-out: Activity (%) Day 28): 144% | activity at 20000 µM (20 mM, 10° C., Day 0, read-out: Activity (%) Day 0): 100% | activity at 20000 µM (20 mM, 10° C., Day 1, read-out: Activity (%) Day 1): 123% | activity at 20000 µM (20 mM, 10° C., Day 3, read-out: Activity (%) Day 3): 123% | activity at 20000 µM (20 mM, 10° C., Day 8, read-out: Activity (%) Day 8): 159% | activity at 20000 µM (20 mM, 10° C., Day 14, read-out: Activity (%) Day 14): 144% | activity at 20000 µM (20 mM, 10° C., Day 28, read-out: Activity (%) Day 28): 169% | activity at 20000 µM (20 mM, 20° C., Day 0, read-out: Activity (%) Day 0): 100% | activity at 20000 µM (20 mM, 20° C., Day 1, read-out: Activity (%) Day 1): 134% | activity at 20000 µM (20 mM, 20° C., Day 3, read-out: Activity (%) Day 3): 137% | activity at 20000 µM (20 mM, 20° C., Day 8, read-out: Activity (%) Day 8): 179% | activity at 20000 µM (20 mM, 20° C., Day 14, read-out: Activity (%) Day 14): 173% | activity at 20000 µM (20 mM, 20° C., Day 28, read-out: Activity (%) Day 28): 206% | activity at 20000 µM (20 mM, 30° C., Day 0, read-out: Activity (%) Day 0): 100% | activity at 20000 µM (20 mM, 30° C., Day 1, read-out: Activity (%) Day 1): 144% | activity at 20000 µM (20 mM, 30° C., Day 3, read-out: Activity (%) Day 3): 181% | activity at 20000 µM (20 mM, 30° C., Day 8, read-out: Activity (%) Day 8): 202% | activity at 20000 µM (20 mM, 30° C., Day 14, read-out: Activity (%) Day 14): 212% | activity at 20000 µM (20 mM, 30° C., Day 28, read-out: Activity (%) Day 28): 215% | activity at 20000 µM (20 mM, 40° C., Day 0, read-out: Activity (%) Day 0): 100% | activity at 20000 µM (20 mM, 40° C., Day 1, read-out: Activity (%) Day 1): 176% | activity at 20000 µM (20 mM, 40° C., Day 3, read-out: Activity (%) Day 3): 206% | activity at 20000 µM (20 mM, 40° C., Day 8, read-out: Activity (%) Day 8): 216% | activity at 20000 µM (20 mM, 40° C., Day 14, read-out: Activity (%) Day 14): 194% | activity at 20000 µM (20 mM, 40° C., Day 28, read-out: Activity (%) Day 28): 217% | activity at 20000 µM (20 mM, 50° C., Day 0, read-out: Activity (%) Day 0): 100% | activity at 20000 µM (20 mM, 50° C., Day 1, read-out: Activity (%) Day 1): 210% | activity at 20000 µM (20 mM, 50° C., Day 3, read-out: Activity (%) Day 3): 196% | activity at 20000 µM (20 mM, 50° C., Day 8, read-out: Activity (%) Day 8): 175% | activity at 20000 µM (20 mM, 50° C., Day 14, read-out: Activity (%) Day 14): 195% | activity at 20000 µM (20 mM, 50° C., Day 28, read-out: Activity (%) Day 28): 174% | increase of BOD activity as compared with that prior to leaving (20 mM, eight days at 20° C.): approximately 1.8 times | increase of BOD activity as compared with that prior to leaving (20 mM, three days at 30° C.): approximately 1.8 times | BOD activity increase at 5° C. compared with not lower than 10° C.: not found to be increased to an extend that was achieved
